These results are taken from patent US11306092B2, “Amino indole compounds useful as TLR inhibitors” (BRISTOL-MYERS SQUIBB COMPANY, priority 2017, dated 2022).

Structures are written as SMILES.

What all share (type): cell-based
Experiment [1] deals with T1, human TLR7 (Homo sapiens, UniProt Q9NYK1).
T1 construct: host or cells: HEK-Blue cells
T1 sequence (Q9NYK1 27-1049): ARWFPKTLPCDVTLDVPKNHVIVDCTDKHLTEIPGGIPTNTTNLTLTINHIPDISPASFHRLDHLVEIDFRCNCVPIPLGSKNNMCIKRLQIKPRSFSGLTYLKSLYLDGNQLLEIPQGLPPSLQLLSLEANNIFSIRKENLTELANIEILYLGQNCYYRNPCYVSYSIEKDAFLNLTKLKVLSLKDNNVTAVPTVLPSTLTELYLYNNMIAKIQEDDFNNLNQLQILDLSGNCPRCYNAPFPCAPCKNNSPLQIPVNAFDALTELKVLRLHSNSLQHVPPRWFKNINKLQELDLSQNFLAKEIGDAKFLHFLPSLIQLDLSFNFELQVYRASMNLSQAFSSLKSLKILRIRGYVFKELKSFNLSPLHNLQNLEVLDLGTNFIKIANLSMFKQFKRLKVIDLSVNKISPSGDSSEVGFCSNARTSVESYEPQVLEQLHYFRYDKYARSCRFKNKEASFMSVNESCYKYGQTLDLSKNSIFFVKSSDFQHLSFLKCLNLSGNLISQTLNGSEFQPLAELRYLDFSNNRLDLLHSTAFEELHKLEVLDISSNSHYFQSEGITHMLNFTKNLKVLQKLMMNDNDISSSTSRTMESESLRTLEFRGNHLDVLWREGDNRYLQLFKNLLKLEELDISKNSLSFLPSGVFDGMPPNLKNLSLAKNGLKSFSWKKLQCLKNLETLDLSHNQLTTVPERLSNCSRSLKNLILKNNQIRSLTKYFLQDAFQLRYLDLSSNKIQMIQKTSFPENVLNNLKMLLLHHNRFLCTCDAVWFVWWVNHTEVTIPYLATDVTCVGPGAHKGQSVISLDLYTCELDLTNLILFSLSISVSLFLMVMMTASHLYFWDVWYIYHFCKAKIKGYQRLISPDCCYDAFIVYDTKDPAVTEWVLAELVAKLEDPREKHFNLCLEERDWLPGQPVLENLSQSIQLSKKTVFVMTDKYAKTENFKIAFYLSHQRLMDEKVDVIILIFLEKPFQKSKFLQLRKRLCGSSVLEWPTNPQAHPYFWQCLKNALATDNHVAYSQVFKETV
Briefly: TLR7 inhibition reporter assay (HEK-Blue SEAP reporter). As to conditions: HEK-Blue cells overexpressing human TLR7; gardiquimod 7.5 μM; 22 hour incubation. In short, it runs like this: (§1)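 Screening used HEK-Blue cells overexpressing one human TLR (7, 8 or 9) and an IFN-β minimal promoter–NF-κB/AP-1 SEAP construct. Stimulation lasted 22 h at 37 °C with receptor-specific agonist: gardiquimod, R848 or ODN2006 at 7.5 μM, 15.9 μM and 5 nM.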

Experiment [2] addresses T2, human TLR8 (Homo sapiens, UniProt Q9NR97).
T2 construct: host or cells: HEK-Blue cells
T2 sequence (Q9NR97 27-1041): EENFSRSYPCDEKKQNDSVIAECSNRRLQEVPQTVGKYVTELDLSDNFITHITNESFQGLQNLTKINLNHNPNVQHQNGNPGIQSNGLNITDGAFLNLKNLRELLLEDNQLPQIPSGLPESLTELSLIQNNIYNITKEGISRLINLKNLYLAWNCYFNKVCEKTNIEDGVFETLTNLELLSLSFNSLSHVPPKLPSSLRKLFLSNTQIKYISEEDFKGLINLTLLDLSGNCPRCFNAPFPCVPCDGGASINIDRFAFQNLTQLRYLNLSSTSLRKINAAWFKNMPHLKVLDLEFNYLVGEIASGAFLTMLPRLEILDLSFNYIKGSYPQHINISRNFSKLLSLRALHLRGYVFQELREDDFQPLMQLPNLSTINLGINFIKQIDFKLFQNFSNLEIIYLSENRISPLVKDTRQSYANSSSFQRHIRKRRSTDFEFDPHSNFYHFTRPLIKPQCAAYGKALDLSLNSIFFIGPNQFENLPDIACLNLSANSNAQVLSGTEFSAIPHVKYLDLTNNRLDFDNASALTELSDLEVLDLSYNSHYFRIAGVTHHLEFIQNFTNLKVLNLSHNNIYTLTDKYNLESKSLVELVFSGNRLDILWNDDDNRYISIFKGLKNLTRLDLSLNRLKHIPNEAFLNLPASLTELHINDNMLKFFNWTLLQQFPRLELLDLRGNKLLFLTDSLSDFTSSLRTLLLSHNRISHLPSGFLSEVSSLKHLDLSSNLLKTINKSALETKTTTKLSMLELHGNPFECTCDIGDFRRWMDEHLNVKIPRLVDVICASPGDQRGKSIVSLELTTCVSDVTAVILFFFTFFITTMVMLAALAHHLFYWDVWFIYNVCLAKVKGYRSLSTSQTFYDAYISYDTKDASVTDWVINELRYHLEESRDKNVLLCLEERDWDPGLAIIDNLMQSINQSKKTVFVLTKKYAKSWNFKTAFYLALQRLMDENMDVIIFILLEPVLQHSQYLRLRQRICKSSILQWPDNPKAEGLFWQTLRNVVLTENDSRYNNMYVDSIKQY
Briefly: TLR8 inhibition reporter assay (HEK-Blue SEAP reporter). As to conditions: HEK-Blue cells overexpressing human TLR8; R848 15.9 μM; 22 hour incubation. In outline: as §1

For experiment [3], the target named is T3, human TLR9 (Homo sapiens, UniProt Q9NR96).
T3 construct: host or cells: HEK-Blue cells
T3 sequence (Q9NR96 26-1032): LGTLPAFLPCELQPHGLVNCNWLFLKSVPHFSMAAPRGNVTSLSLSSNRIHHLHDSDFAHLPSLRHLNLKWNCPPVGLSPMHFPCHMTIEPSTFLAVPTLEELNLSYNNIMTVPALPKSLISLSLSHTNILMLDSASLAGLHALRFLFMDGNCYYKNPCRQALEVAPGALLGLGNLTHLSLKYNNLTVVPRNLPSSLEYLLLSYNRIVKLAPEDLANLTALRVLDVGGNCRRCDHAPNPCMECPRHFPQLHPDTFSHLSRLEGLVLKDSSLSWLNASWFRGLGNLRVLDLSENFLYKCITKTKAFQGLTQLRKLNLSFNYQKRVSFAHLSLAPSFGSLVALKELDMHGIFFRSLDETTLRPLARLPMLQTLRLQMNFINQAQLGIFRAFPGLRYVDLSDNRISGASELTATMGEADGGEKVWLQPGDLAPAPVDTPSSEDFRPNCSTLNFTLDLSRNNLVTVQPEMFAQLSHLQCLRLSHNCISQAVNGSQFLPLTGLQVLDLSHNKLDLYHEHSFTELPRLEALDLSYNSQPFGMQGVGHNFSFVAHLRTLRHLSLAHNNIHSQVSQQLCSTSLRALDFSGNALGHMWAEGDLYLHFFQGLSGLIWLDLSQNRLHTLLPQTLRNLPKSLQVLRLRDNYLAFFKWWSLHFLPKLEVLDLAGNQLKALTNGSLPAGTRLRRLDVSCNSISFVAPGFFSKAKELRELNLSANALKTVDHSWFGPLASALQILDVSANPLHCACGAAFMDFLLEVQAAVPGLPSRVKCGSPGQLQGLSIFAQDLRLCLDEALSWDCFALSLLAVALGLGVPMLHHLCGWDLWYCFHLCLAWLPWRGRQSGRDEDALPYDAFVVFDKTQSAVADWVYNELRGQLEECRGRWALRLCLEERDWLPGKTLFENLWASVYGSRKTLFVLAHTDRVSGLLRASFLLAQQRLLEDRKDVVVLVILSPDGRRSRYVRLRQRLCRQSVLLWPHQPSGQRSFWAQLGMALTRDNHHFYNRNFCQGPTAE
Briefly: TLR9 inhibition reporter assay (HEK-Blue SEAP reporter). As to conditions: HEK-Blue cells overexpressing human TLR9; ODN2006 5 nM; 22 hour incubation. In short, it runs like this:
as §1

As for `COc1ccc(-c2[nH]c3ccc(NC(=O)CCCN)cc3c2C(C)C)cc1OC` [Example 12, 4-amino-N-(2-(3,4-dimethoxyphenyl)-3-isopropyl-1H-indol-5-yl)butanamide], the IC50 in experiment [1] worked out at 202 nM; in experiment [2], 37 nM; in experiment [3], 5610 nM.
Taken in the same sequence, the figures for `CCc1c(-c2ccc(OC)c(OC)c2)[nH]c2ccc(N3CCC(OC4CCN(C(C)C)CC4)CC3)cc12` [Example 191, 2-(3,4-dimethoxyphenyl)-3-ethyl-5-(4-((1-isopropylpiperidin-4-yl)oxy)piperidin-1-yl)-1H-indole] were 87 nM, 66 nM and 836 nM.
Taken in the same sequence, the figures for `Cc1cc(-c2[nH]c3ccc(N4CCC(N(C)CCN)C4=O)cc3c2C(C)C)ccn1` (stereo not drawn) [Example 2, 3-((2-aminoethyl)(methyl)amino)-1-(3-isopropyl-2-(2-methylpyridin-4-yl)-1H-indol-5-yl)pyrrolidin-2-one] were 99 nM, 28 nM and 4970 nM.
On the same counts, the results for `COc1ccc(-c2[nH]c3ccc(N4CCC(N5CC(C)OC(C)C5)CC4)cc3c2C(C)C)cc1OC` (stereo not drawn) [Example 80, 4-(1-(2-(3,4-dimethoxyphenyl)-3-isopropyl-H-indol-5-yl)piperidin-4-yl)-2,6-dimethylmorpholine] are 130 nM, 19 nM and 5790 nM.
`CCc1c(-c2ccc(OC)c(OC)c2)[nH]c2cc(C(C)C)c(N3CCN(C4CCN(C(C)C)CC4)CC3)cc12` [Example 69, 2-(3,4-dimethoxyphenyl)-3-ethyl-6-isopropyl-5-(4-(1-isopropylpiperidin-4-yl)piperazin-1-yl)-1H-indole]: the IC50 stood at 1160 nM in experiment [1], 14300 nM in experiment [2] and 2610 nM in experiment [3].
Regarding `COc1ccc(-c2[nH]c3ccc(N4CCC(N(C)C)CC4)cc3c2C(C)C)cc1OC` [Example 108, 1-(2-(3,4-dimethoxyphenyl)-3-isopropyl-1H-indol-5-yl)-N,N-dimethylpiperidin-4-amine], the IC50 in experiment [1] came out at 23 nM; in experiment [2], 10 nM; in experiment [3], 2530 nM.
With `COc1ccc(-c2[nH]c3ccc(N4CCC(OC5CCN(C)CC5)CC4)cc3c2C(C)C)cc1OC` [Example 187, 2-(3,4-dimethoxyphenyl)-3-isopropyl-5-(4-((1-methylpiperidin-4-yl)oxy)piperidin-1-yl)-1H-indole], the IC50 in experiment [1] was 83 nM; in experiment [2], 167 nM; in experiment [3], 1450 nM.
With `Cc1cc(-c2[nH]c3ccc(N4CCC(OCCN(C)C)C4=O)cc3c2C(C)C)ccn1` (stereo not drawn) [Example 7, 3-(2-(dimethylamino)ethoxy)-1-(3-isopropyl-2-(2-methylpyridin-4-yl)-1H-indol-5-yl)pyrrolidin-2-one], the IC50 is 1590 nM in experiment [1], 603 nM in experiment [2] and 17300 nM in experiment [3].
For `CCc1c(-c2ccc(OC)c(OC)c2)[nH]c2ccc(N3CCC4(CCN(C)CC4)CC3)cc12` [Example 181, 3-(2-(3,4-dimethoxyphenyl)-3-ethyl-1H-indol-5-yl)-9-methyl-3,9-diazaspiro[5.5]undecane], the IC50 in experiment [1] is 54 nM; in experiment [2] it was 74 nM; in experiment [3], 517 nM.
Taken in the same sequence, the figures for `COc1ccc(-c2[nH]c3ccc(N4CCC(C5c6ccccc6CCN5C)CC4)cc3c2C(C)C)cc1OC` (stereo not drawn) [Example 119, 1-(1-(2-(3,4-dimethoxyphenyl)-3-isopropyl-1H-indol-5-yl)piperidin-4-yl)-2-methyl-1,2,3,4-tetrahydroisoquinoline] were 1400 nM, 24 nM and 2300 nM.
On the same counts, the results for `CCc1c(-c2ccc(OC)c(OC)c2)[nH]c2cc(C)c(N3CCN(CCNC)CC3)cc12` [Example 144, 2-(4-(2-(3,4-dimethoxyphenyl)-3-ethyl-6-methyl-1H-indol-5-yl)piperazin-1-yl)-N-methylethan-1-amine] are 45 nM, 45 nM and 952 nM.
